How the values were obtained:
experimental granuloma = assay: Cotton-wool granuloma (chronic proliferative inflammation) in rats; type: in vivo; settings: 100 mg/kg orally, 12 days
Protocol: We investigated the ability of compound (2) to reduce the formation of granulation tissue in the inflammatory focus which develops at the site at which a non-sterile cotton-wool roll weighing 40 mg is implanted subcutaneously (Swingle and Shideman, 1972). Compound (2) was administered orally to male rats weighing 130-150 g at a dose of 100 mg/kg for 6 days before the cotton-wool roll was implanted, and then for 6 days at the same dose while the granuloma developed. Anti-inflammatory agents, such as ibuprofen and butadione, were used for comparison, using the same procedure. There were 10 rats in each group.
After 12 days the experiment was terminated, and the granulomas were excised, weighed, and the wet weight of the granulation tissue was measured. The dry mass of the granuloma was measured after drying for 24 hours at 70° C., and the exudative and proliferative stages of the granulomas were calculated. Statistical analysis was performed using the Student's parametric test.

[1] = test system: gastric and duodenal ulcer; assay: Clinical trial in gastric and duodenal ulcer; type: in vivo, human; settings: three 0.2 g tablets per day orally for three weeks
Protocol: A clinical trial of the effect of Compound 2 on gastric and duodenal ulcer was carried out in several gastroenterological clinics in Russia. A total of 167 patients, 30 to 75 years old, was studied; of these 93 had duodenal ulcers and 74 had gastric ulcers. The results were monitored by gastroscopy at weekly intervals. Each patient continued to receive the treatment which s/he had been given prior to commencement of the trial. Compound 2 was administered in addition to the previous treatment. Compound 2 was given orally as three 0.2 g tablets per day over a period of three weeks, ie a total dose of […] for the treatment course, Compound 2 healed 80% of all the duodenal ulcers treated, and 54% of all the gastric ulcers treated. […] The effect of Compound 2 was compared with those of a placebo, or cimetidine. Even better results were obtained when Compound 2 was administered together with conventional therapy. […] Following termination of treatment with Compound 2 no ulceration was observed, ie there was no sign of the abstinence syndrome which is typically seen with H2-blockers and hormones. Compound 2 was an effective therapeutic agent with a pronounced reparative effect on erosive and ulcerating injuries of the gastroduodenal area.

bone plate defect = assay: Repair of bone plate defect of the rat lower jaw; type: in vivo, rats; settings: 50 mg/kg over the course of three months
Protocol: A round or oval defect of the bone plate with a diameter of 2.5 mm was produced in the bone tissue of the rat lower jaw, using a dental drill under ether anaesthesia. In the post-operative period, the animals were kept in separate cages, with normal food and water ad libitum. The experiments were performed on 130 male rats weighing 180-200 g, with 10 rats in each group.
The animal test groups were treated with Compound 2 (50 or 100 mg/kg) or methyl uracil (50 mg/kg) 24 hours after the damage and on a daily basis for three months. […] The following groups were used:
The repair pattern of the injured bone was assessed morphologically on tissue sections after 30, 60 and 90 days. The sections were examined by light microscopy at magnifications of ×15, ×100, ×200, and ×400.

CC[n+]1cn(C)c(C(=O)NC)c1C(=O)NC.O=S(=O)([O-])c1ccccc1 [Compound 2, 1-methyl-3-ethyl-4,5-bis(N-methylcarbamoyl)-imidazolium benzenesulfonate]
Granuloma weight (mg) Dry weight (experimental granuloma): 180.71 ± 14.16 mg | Granuloma weight (mg) Exudative stage (experimental granuloma): 775.58 mg | Granuloma weight (mg) Fresh weight (experimental granuloma): 956.29 ± 115.5 mg | Granuloma weight (mg) Proliferative stages (experimental granuloma): 140.71 mg | side effects [1]: No side effects were observed | duodenal ulcers healed ([1]; added to previous treatment): 80% | gastric ulcers healed ([1]; added to previous treatment): 54% | closing of bone defect (bone plate defect): the defect was almost fully closed by the newly formed primary callus bone tissue
